The source of these data is publication PMC9500072, “Topical application of an irreversible small molecule inhibitor of lysyl oxidases ameliorates skin scarring and fibrosis” (Nature Communications, 2022).

One data set addresses Dopamine D2S (Homo sapiens, UniProt P14416). As to the kind of experiment: Eurofins panel 219700. Format: binding.
A further data set has as its target Adenosine A2A (Homo sapiens, UniProt P29274). Description: Eurofins panel 200610. Type of data set: binding.
The target of data set [1] is Transporter, Norepinephrine (NET) (Homo sapiens, UniProt P23975). As to the kind of experiment: Eurofins panel 204410. Format: binding.
Sequence of Transporter, Norepinephrine (NET) (P23975 whole entry): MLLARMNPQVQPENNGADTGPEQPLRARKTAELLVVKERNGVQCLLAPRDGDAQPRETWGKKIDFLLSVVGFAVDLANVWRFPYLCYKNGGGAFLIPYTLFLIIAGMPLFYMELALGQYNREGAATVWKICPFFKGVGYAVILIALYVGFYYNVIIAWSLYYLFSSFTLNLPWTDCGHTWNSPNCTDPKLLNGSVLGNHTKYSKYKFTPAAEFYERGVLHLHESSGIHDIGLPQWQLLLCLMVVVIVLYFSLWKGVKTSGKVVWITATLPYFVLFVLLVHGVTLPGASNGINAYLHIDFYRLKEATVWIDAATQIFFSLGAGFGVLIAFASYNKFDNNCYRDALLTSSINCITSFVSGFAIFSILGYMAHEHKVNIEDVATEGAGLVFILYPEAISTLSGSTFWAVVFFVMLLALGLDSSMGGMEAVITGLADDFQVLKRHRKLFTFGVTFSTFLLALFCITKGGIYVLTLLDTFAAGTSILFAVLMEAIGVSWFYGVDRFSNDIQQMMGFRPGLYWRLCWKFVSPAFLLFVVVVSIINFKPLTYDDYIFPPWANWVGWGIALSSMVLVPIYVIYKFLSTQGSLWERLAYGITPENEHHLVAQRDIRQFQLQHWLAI
For data set [2], the target named is Serotonin (5-Hydroxytryptamine) 5-HT2B (Homo sapiens, UniProt P41595). As to the kind of experiment: Eurofins panel 271700. Type of data set: binding.
Sequence of Serotonin (5-Hydroxytryptamine) 5-HT2B (P41595 whole entry): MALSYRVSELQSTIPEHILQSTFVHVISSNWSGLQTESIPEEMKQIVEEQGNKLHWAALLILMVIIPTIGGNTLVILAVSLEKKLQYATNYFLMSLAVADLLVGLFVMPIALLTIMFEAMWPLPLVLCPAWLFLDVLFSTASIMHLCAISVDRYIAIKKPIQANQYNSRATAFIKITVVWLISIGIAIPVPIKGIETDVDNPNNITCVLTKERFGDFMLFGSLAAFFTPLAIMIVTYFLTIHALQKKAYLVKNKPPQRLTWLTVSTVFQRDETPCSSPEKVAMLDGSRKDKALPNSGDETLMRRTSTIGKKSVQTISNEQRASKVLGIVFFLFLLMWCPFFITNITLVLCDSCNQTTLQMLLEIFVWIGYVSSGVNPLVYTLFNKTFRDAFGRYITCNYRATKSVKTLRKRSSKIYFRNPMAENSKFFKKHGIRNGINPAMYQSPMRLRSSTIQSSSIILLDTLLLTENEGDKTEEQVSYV
The target in a further data set is Adrenergic α1A (Rattus norvegicus, UniProt P43140). Description: Eurofins panel 203100. Format: binding.
Sequence of Adrenergic α1A (P43140 whole entry): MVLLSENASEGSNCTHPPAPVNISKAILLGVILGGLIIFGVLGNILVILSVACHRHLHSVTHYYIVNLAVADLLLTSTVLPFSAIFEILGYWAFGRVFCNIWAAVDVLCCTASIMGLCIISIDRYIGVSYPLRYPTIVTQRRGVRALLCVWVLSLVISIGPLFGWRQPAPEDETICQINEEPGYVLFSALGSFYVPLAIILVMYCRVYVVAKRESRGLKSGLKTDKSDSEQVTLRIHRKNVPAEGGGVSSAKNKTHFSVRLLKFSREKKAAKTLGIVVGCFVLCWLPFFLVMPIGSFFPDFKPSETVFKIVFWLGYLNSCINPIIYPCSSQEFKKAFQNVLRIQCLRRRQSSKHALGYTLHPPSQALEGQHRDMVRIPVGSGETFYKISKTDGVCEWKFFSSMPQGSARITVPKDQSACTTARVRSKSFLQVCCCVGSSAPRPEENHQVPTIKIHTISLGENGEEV
The target in another data set is Dopamine D1 (Homo sapiens, UniProt P21728). As to the kind of experiment: Eurofins panel 219500. Format: binding.
A short description of data set [3]: Systemic exposure in rat at 1000 mg/kg/day. Format: in vivo. The conditions noted are these: daily for 1 week.
For data set [4], the target named is Transporter, Dopamine (DAT) (Homo sapiens, UniProt Q01959). As to the kind of experiment: Eurofins panel 220320. Format: binding.
Sequence of Transporter, Dopamine (DAT) (Q01959 whole entry): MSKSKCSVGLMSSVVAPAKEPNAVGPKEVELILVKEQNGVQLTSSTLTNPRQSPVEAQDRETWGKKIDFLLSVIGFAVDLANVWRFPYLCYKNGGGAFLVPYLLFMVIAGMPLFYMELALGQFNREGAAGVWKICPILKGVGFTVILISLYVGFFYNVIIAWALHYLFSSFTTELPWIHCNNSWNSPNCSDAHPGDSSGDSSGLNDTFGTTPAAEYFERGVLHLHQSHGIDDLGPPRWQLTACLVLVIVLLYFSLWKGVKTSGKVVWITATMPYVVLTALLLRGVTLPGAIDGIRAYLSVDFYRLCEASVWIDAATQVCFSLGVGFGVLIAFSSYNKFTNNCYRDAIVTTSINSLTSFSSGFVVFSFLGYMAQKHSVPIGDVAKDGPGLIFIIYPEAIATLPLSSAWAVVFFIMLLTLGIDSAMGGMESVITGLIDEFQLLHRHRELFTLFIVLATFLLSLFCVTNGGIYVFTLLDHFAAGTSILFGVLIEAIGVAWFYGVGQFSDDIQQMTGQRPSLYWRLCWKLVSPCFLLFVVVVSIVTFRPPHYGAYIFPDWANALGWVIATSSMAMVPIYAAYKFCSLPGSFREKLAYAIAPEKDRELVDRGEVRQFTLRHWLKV
Another data set deals with Muscarinic M1 (Homo sapiens, UniProt P11229). Description: Eurofins panel 252610. Format: binding.
A further data set relates to Androgen (Testosterone). Description: Eurofins panel 206000. Format: binding, human.
The target in a further data set is Adrenergic β1 (Homo sapiens, UniProt P08588). Description: Eurofins panel 204010. Type of data set: binding.
Sequence of Adrenergic β1 (P08588 whole entry): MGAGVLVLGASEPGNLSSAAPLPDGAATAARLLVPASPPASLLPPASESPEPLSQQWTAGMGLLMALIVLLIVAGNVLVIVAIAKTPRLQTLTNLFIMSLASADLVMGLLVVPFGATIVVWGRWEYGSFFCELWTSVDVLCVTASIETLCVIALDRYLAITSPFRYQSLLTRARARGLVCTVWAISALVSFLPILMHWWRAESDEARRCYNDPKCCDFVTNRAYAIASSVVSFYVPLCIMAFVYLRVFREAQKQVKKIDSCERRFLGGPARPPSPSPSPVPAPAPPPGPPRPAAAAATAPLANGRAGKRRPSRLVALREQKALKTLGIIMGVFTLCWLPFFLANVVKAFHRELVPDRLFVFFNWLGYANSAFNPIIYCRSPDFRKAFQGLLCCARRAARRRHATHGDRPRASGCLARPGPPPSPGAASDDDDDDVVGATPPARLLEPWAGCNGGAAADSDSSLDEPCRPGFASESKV
The next data set has as its target Adrenergic α2A (Homo sapiens, UniProt P08913). Description: Eurofins panel 203630. Format: binding.
In a further data set the test system is Sodium Channel, Site 2. As to the kind of experiment: Eurofins panel 279510. Format: binding, rat.
The target of data set [5] is Transporter, Serotonin (5- Hydroxytryptamine) (SERT) (Homo sapiens, UniProt P31645). Description: Eurofins panel 274030. Type of data set: binding.
Sequence of Transporter, Serotonin (5- Hydroxytryptamine) (SERT) (P31645 whole entry): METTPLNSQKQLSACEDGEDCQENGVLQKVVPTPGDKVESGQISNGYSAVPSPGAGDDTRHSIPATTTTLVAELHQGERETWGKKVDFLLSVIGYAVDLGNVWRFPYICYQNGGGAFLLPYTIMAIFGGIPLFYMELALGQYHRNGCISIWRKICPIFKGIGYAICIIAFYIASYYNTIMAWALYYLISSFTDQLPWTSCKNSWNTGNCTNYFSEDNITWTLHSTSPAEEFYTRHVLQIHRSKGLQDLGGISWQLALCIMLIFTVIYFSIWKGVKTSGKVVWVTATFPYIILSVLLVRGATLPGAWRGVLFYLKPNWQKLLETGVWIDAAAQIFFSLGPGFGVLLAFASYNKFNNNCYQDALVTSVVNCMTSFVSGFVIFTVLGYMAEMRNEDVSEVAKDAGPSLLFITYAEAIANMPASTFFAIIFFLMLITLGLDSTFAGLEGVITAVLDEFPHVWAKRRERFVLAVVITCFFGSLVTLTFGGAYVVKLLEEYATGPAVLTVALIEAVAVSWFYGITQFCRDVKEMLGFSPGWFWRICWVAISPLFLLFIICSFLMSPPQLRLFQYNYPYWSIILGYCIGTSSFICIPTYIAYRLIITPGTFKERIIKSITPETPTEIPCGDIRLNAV
Data set [6] has as its system GABAA, Flunitrazepam, Central. Description: Eurofins panel 226600. Format: binding, rat.
Data set [7] relates to full-thickness excision injury scar. As to the kind of experiment: Murine excision injury model. Format: in vivo, C57BL6/J mice. The text has this:
Having established promising in vivo anti-fibrotic efficacy, we next evaluated a full-thickness excision injury model in mice. Full-thickness excision injuries of approximately 1.1 cm^2 (approximately 2% body surface area) of dorsal skin were created under anesthesia. From Day 2 post-injury, animals received daily application of 0, 0.5, or 1.5% PXS-6302 oil in water cream for 28 days. At the end of the experiment, all animals were euthanised and scar tissue analyzed for collagen and cross-link content. […] Therefore, when applied after injury and during the healing phase, PXS-6302 reduced collagen crosslinking and total collagen deposition in the scar. Reassuringly, the efficacy of PXS-6302 was in line with earlier studies (performed with the first-generation inhibitor, PXS-4787, Supplementary Fig. S7) albeit with what appears to be a more comprehensive impact on crosslinking at a lower dose.
Cell pellets or isolated tissue samples were completely hydrolyzed in 1.5 mL 6 M hydrochloric acid for 24 h at 105 °C. After complete hydrolysis, samples were dried using a vacuum dryer and reconstituted using 200 µL MilliQ water. The sample clean-up was performed using solid-phase extraction method which uses C18 and SCX solid-phase extraction cartridges for sample purification. The samples were run on UPLC-MS-MS (Mass Spectrometer: Thermo Scientific TSQ Endura Triple quadrupole, UPLC: Thermo Scientific Dionex UltiMate 3000) using Agilent RRHD SB-C18,2.1x50mm,1.8um analytical column and solvent A: 10 mM ammonium formate, 0.1% formic acid, 0.1% HFBA in H2O and solvent B: 10 mM ammonium formate, 0.1% formic acid, 0.1% HFBA in MeOH and analyzed as previously described. Limits of detection are listed in Supplementary Table S4.
Nine-week-old C57BL6/J female mice (n = 8 per group) received a full-thickness excision injury of 1.1 cm^2 on dorsal area using a circular 12-mm biopsy punch (Acu-Punch, Badand Medical, P1250) (approximately 2% body surface area) under anesthesia. All animals received intramuscular injection of buprenorphine (0.1 mg/kg) as an analgesia. Paracetamol (1 mg/ml) was provided for 5 days post-injury in drinking water. Animals were allowed to recover for 24 h post-injury. Animals in the treatment group received twice a day application of 3% PXS-4787 cream for 28 days. For PXS-6302, once per day application of 1.5% concentration cream was used. At the end of the experiment, all animals were euthanised using an intraperitoneal injection of pentobarbitone (160 mg Kg-1) under Isoflurane anesthesia, and scar tissues were removed. The scar skin was fixed in 4% paraformaldehyde overnight at 4 °C. After fixation, tissues were washed in sterile PBS at room temperature. Samples were processed in Leica ASP300S Tissue Processor followed by embedding in paraffin blocks using tissue processor (Leica EG1150 modular tissue embedding center). The paraffin blocks were sectioned at 5 µm thickness using a wax microtome (fully automated Leica RM2255). For standard histology, the skin sections were stained with hematoxylin and eosin stain and Masson’s Trichrome stain. The stained sections were used to determine the collagen fiber orientation in the control and treatment specimens. All stained skin tissue sections were processed for whole slide imaging using a ScanScopeXT (Aperio Technologies, USA) at 20-x magnification. The digital images were collected and analyzed using ImageScope software (Aperio Techologies, Inc, USA). A piece of excised mouse scar tissue was processed for the collagen crosslinks extraction. The scar skin was weighed and homogenized in 900 µL PBS (FastPrep-24TM5G(MP) homogenizer). The tissue homogenate equivalent to 10 mg tissue was transferred to heat/acid resistant screw cap tube (VWR 16466-060) and the total volume of 870 µL was adjusted with PBS. The tissue homogenate was reduced with a Sodium borohydride buffer and processed for cross-link extraction protocol as mentioned in previous section.

The target of a further data set is Cannabinoid CB1 (Homo sapiens, UniProt P21554). As to the kind of experiment: Eurofins panel 217030. Type of data set: binding.
Sequence of Cannabinoid CB1 (P21554 whole entry): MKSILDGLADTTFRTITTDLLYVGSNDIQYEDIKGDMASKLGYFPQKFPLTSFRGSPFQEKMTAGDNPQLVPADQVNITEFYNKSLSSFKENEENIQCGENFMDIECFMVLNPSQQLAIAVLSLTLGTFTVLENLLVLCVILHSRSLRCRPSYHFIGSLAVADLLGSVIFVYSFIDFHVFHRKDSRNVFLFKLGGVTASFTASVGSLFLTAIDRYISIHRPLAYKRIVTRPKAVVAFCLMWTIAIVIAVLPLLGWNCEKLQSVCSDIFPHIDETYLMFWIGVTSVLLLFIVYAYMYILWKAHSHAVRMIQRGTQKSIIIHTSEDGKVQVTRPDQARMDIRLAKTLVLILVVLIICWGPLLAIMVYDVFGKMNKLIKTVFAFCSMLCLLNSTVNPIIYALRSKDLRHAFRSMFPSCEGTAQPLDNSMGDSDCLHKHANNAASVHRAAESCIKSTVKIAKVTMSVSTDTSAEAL
Setting [8] is: 3% PXS-4787, individual samples.
Where [9] appears, read: 0.5 or […] cream daily for 28 days.

“And” between values parts separate entries of the source, which are not always exact repeats. Equal values may be shown once.

Sequence of Adrenergic α2A (P08913 whole entry): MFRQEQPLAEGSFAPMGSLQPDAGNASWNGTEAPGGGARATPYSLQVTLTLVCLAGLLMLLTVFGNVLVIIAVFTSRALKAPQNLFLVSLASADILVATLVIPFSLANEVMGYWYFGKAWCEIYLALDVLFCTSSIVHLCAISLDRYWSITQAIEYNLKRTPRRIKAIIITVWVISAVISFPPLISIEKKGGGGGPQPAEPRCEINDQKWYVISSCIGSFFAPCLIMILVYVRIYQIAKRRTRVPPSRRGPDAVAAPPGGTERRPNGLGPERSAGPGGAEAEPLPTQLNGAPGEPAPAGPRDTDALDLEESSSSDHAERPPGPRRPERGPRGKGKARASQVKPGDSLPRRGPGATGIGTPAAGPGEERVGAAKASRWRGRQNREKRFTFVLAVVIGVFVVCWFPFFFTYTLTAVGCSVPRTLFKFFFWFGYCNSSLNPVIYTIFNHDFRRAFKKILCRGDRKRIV
Sequence of Dopamine D2S (P14416 1-414 isoform P14416-2): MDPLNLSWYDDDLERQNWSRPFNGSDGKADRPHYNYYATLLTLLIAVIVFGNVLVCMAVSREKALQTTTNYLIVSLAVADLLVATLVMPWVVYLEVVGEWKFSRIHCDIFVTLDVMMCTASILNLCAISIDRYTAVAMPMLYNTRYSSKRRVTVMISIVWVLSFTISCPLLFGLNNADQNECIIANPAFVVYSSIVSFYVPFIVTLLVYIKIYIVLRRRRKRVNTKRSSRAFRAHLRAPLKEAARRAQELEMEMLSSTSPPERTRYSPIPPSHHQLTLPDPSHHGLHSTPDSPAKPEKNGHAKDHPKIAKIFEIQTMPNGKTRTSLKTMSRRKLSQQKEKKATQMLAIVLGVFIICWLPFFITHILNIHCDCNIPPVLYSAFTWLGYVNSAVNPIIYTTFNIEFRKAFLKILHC

Turning to `NC/C=C(\F)CS(=O)(=O)c1ccccc1` [PXS-4787], the inhibition at 10 µM came out at 13% on Dopamine D2S (10 µM); 15% at Adenosine A2A (10 µM); 24% in [1] (10 µM); 21% in data set [2] (10 µM); 1% against Adrenergic α1A (10 µM); 3% at Dopamine D1 (10 µM). Besides, the inhibition at 10 µM is 6% in data set [4] (10 µM); 56% against Muscarinic M1 (10 µM); -3% on Adrenergic β1 (10 µM); 1% against Adrenergic α2A (10 µM); 8% in data set [5] (10 µM); 8% on Cannabinoid CB1 (10 µM). In addition, in data set [3], the systemic levels result is reported as “negligible”. Further, the “% Inh.” value is 2% in the data set on Androgen (Testosterone) (10 µM); 13% in the data set with Sodium Channel, Site 2 (10 µM); -1% in [6] (10 µM). The DLHNL in data set [7] (setting [8]) is 32.598 pmol/mg tissue and 48.992 pmol/mg tissue and 38.94 pmol/mg tissue and 30.0045 pmol/mg tissue and 38.524 pmol/mg tissue and 51.535 pmol/mg tissue and 45.099 pmol/mg tissue and 36.456 pmol/mg tissue and 45.26 pmol/mg tissue. The DPD in [7] (setting [8]) was 0.2026 pmol/mg tissue and 0.9604 pmol/mg tissue and 0.9521 pmol/mg tissue and 0.3416 pmol/mg tissue and 0.3259 pmol/mg tissue and 0.4694 pmol/mg tissue and 0.5793 pmol/mg tissue and 0.3046 pmol/mg tissue. Moreover, the HLNL in data set [7] (setting [8]) is 11.709 pmol/mg tissue and 8.873 pmol/mg tissue and 7.946 pmol/mg tissue and 7.092 pmol/mg tissue and 8.4919 pmol/mg tissue and 8.338 pmol/mg tissue and 7.8195 pmol/mg tissue and 7.455 pmol/mg tissue. Also, in data set [7] (setting [8]), the HYP was 8529.4 pmol/mg tissue and 13422.8 pmol/mg tissue and 10345 pmol/mg tissue and 7129.2 pmol/mg tissue and 10620.5 pmol/mg tissue and 15497 pmol/mg tissue and 11840.8 pmol/mg tissue and 10529.6 pmol/mg tissue and 12893.7 pmol/mg tissue. Further, the PYD in [7] (setting [8]) was 3.941 pmol/mg tissue and 2.065 pmol/mg tissue and 3.401 pmol/mg tissue and 3.561 pmol/mg tissue and 3.481 pmol/mg tissue and 3.75 pmol/mg tissue and 2.469 pmol/mg tissue and 2.034 pmol/mg tissue. Also, the “collagen cross-links formation in mouse scar” value in data set [7] (3% cream for 28 days) is “Reduced”.
With `NC/C=C(\F)C(F)(F)S(=O)(=O)c1ccccc1` [PXS-6302], the inhibition at 30 µM is 13% at Dopamine D2S (read-out: % Inh.); -6% at Adenosine A2A (read-out: % Inh.); 55% in [1] (read-out: % Inh.); 63% in [2] (read-out: % Inh.); 3% at Adrenergic α1A (read-out: % Inh.); 0% at Dopamine D1 (read-out: % Inh.). The inhibition at 30 µM in data set [4] (read-out: % Inh.) turned out to be 50%; at Muscarinic M1 (read-out: % Inh.), 13%; on Adrenergic β1 (read-out: % Inh.), 4%; on Adrenergic α2A (read-out: % Inh.), 17%; in [5] (read-out: % Inh.) it was 20%; on Cannabinoid CB1 (read-out: % Inh.), 4%. For the same compound, the systemic levels entry in data set [3] is reported as “negligible”. Further, the “% Inh.” value was -14% in the data set with Androgen (Testosterone) (30 µM); 66% in the data set with Sodium Channel, Site 2 (30 µM); 4% in [6] (30 µM). Further, in [7] (0.5%, individual animals), the DHLNL was 67.3445 pmol/mg protein and 104.493 pmol/mg protein and 49.564 pmol/mg protein and 93.5833 pmol/mg protein and 114.502 pmol/mg protein and 104.151 pmol/mg protein and 87.6663 pmol/mg protein and 102.971 pmol/mg protein. Besides, the DPD in data set [7] (0.5%, individual animals) was 0.09524 pmol/mg protein and 0.2563 pmol/mg protein and 0.2515 pmol/mg protein and 0.4184 pmol/mg protein and 0.4492 pmol/mg protein and 0.4037 pmol/mg protein and 0.2113 pmol/mg protein and 0.2885 pmol/mg protein. For the same compound, the HLNL in [7] (0.5%, individual animals) was 0.7003 pmol/mg protein and 0.9861 pmol/mg protein and 0.7921 pmol/mg protein and 1.215 pmol/mg protein and 1.527 pmol/mg protein and 1.179 pmol/mg protein and 1.122 pmol/mg protein and 0.9282 pmol/mg protein. Moreover, the HYP in data set [7] (0.5%, individual animals) was 135437 pmol/mg protein and 169286 pmol/mg protein and 127310 pmol/mg protein and 207537 pmol/mg protein and 183083 pmol/mg protein and 195703 pmol/mg protein and 151852 pmol/mg protein and 169426 pmol/mg protein. In [7] (0.5%, individual animals), the PYD is 1.932 pmol/mg protein and 5.635 pmol/mg protein and 3.784 pmol/mg protein and 5.7092 pmol/mg protein and 5.347 pmol/mg protein and 5.273 pmol/mg protein and 4.615 pmol/mg protein and 4.89 pmol/mg protein. Moreover, the “hydroxyproline concentration in scar” value in data set [7] (setting [9]) is given as “dose-dependent reduction”. For the same compound, the “mature and immature crosslinks in scar” value in [7] (setting [9]) is reported as “dose-dependently diminished”.
